Read-outs that look alike come from different tables or passages of the source.
Test: Ascending multiple dose pharmacokinetics of enteric coated capsules in healthy subjects
Format: in vivo, human
Details: human, plasma, po, healthy subjects
Procedure: Ascending multiple doses of 25, 50, 75, 100, 150, and 250 mg Compound A.HCl were administered as twice-daily regimen (q12h) for 14 days in cohorts of 8 healthy subjects (6 active and 2 placebo). Blood samples for Compound A.HCl analysis were obtained on days 1 and 14 within 2 hours of test article administration and at various time points from 0.5 to 48 hours after test article administration. Doses were administered orally after an overnight fast of at least 10 hours on these 2 days. Trough PK samples were collected on days 7, 10, and 12 to assess whether steady-state had been reached.
A total of 48 subjects contributed pharmacokinetic data for this analysis. […] FIGS. 4A and 4B show the relationship between Cmax vs. dose and AUC vs. dose, respectively.

Cl.c1cc2c3c(c1)[C@H]1CCC[C@H]1CN3CCNC2 [Compound A.HCl, (9aR,12aS)-4,5,6,7,9,9a,10,11,12,12a-decahydrocyclopenta[c][1,4]diazepino[6,7,1-ij]quinoline hydrochloride]
half-life (75 mg, single oral dose 75 mg, day 1, read-out: t1/2 (Mean) (converted)): 8.22 h
AUC(0-t) (100 mg, multiple oral doses (q12 h) 100 mg, day 14, read-out: AUCss (AUC0-12) (Geom. Mean)): 49.2 ng·h/mL
AUC(0-t) (100 mg, multiple oral doses (q12 h) 100 mg, day 14, read-out: AUCss (AUC0-12) (Mean)): ~62.8 ng·h/mL
Cmax (100 mg, multiple oral doses (q12 h) 100 mg, day 14, read-out: Cmax (Geom. Mean)): 6.45 ng/mL
Cmax (100 mg, multiple oral doses (q12 h) 100 mg, day 14, read-out: Cmax (Mean)): 7.81 ng/mL
Tmax (100 mg, multiple oral doses (q12 h) 100 mg, day 14, read-out: Tmax (Geom. Mean)): 5.3 h
Tmax (100 mg, multiple oral doses (q12 h) 100 mg, day 14, read-out: Tmax (Mean)): 5.5 h
half-life (100 mg, multiple oral doses (q12 h) 100 mg, day 14, read-out: t1/2 (Geom. Mean) (converted)): 7.72 h
half-life (100 mg, multiple oral doses (q12 h) 100 mg, day 14, read-out: t1/2 (Mean) (converted)): 7.86 h
AUC(0-inf) (100 mg, single oral dose 100 mg, day 1, read-out: AUC0-∞ (Geom. Mean)): 47.2 ng·h/mL
AUC(0-inf) (100 mg, single oral dose 100 mg, day 1, read-out: AUC0-∞ (Mean)): 55.5 ng·h/mL
Cmax (100 mg, single oral dose 100 mg, day 1, read-out: Cmax (Geom. Mean)): 3.64 ng/mL
Cmax (100 mg, single oral dose 100 mg, day 1, read-out: Cmax (Mean)): 4.38 ng/mL
Tmax (100 mg, single oral dose 100 mg, day 1, read-out: Tmax (Geom. Mean)): 5.3 h
Tmax (100 mg, single oral dose 100 mg, day 1, read-out: Tmax (Mean)): 5.5 h
half-life (100 mg, single oral dose 100 mg, day 1, read-out: t1/2 (Geom. Mean) (converted)): 9.31 h
half-life (100 mg, single oral dose 100 mg, day 1, read-out: t1/2 (Mean) (converted)): 9.9 h
AUC(0-t) (150 mg, multiple oral doses (q12 h) 150 mg, day 14, read-out: AUCss (AUC0-12) (Geom. Mean)): 90.7 ng·h/mL
AUC(0-t) (150 mg, multiple oral doses (q12 h) 150 mg, day 14, read-out: AUCss (AUC0-12) (Mean)): ~110 ng·h/mL
Cmax (150 mg, multiple oral doses (q12 h) 150 mg, day 14, read-out: Cmax (Geom. Mean)): 10.7 ng/mL
Cmax (150 mg, multiple oral doses (q12 h) 150 mg, day 14, read-out: Cmax (Mean)): 13.1 ng/mL
Tmax (150 mg, multiple oral doses (q12 h) 150 mg, day 14, read-out: Tmax (Geom. Mean)): 5 h
Tmax (150 mg, multiple oral doses (q12 h) 150 mg, day 14, read-out: Tmax (Mean)): 5.2 h
half-life (150 mg, multiple oral doses (q12 h) 150 mg, day 14, read-out: t1/2 (Geom. Mean) (converted)): 7 h
half-life (150 mg, multiple oral doses (q12 h) 150 mg, day 14, read-out: t1/2 (Mean) (converted)): 7.04 h
AUC(0-inf) (150 mg, single oral dose 150 mg, day 1, read-out: AUC0-∞ (Geom. Mean)): 55.3 ng·h/mL
AUC(0-inf) (150 mg, single oral dose 150 mg, day 1, read-out: AUC0-∞ (Mean)): 70.2 ng·h/mL
Cmax (150 mg, single oral dose 150 mg, day 1, read-out: Cmax (Geom. Mean)): 3.67 ng/mL
Cmax (150 mg, single oral dose 150 mg, day 1, read-out: Cmax (Mean)): 5.05 ng/mL
Tmax (150 mg, single oral dose 150 mg, day 1, read-out: Tmax (Geom. Mean)): 5.6 h
Tmax (150 mg, single oral dose 150 mg, day 1, read-out: Tmax (Mean)): 5.7 h
half-life (150 mg, single oral dose 150 mg, day 1, read-out: t1/2 (Geom. Mean) (converted)): 9 h
half-life (150 mg, single oral dose 150 mg, day 1, read-out: t1/2 (Mean) (converted)): 9.08 h
AUC(0-t) (250 mg, multiple oral doses (q12 h) 250 mg, day 14, read-out: AUCss (AUC0-12) (Geom. Mean)): 218 ng·h/mL
AUC(0-t) (250 mg, multiple oral doses (q12 h) 250 mg, day 14, read-out: AUCss (AUC0-12) (Mean)): ~235 ng·h/mL
Cmax (250 mg, multiple oral doses (q12 h) 250 mg, day 14, read-out: Cmax (Geom. Mean)): 25.6 ng/mL
Cmax (250 mg, multiple oral doses (q12 h) 250 mg, day 14, read-out: Cmax (Mean)): 26.8 ng/mL
Tmax (250 mg, multiple oral doses (q12 h) 250 mg, day 14, read-out: Tmax (Geom. Mean)): 5.9 h
Tmax (250 mg, multiple oral doses (q12 h) 250 mg, day 14, read-out: Tmax (Mean)): 6.2 h
half-life (250 mg, multiple oral doses (q12 h) 250 mg, day 14, read-out: t1/2 (Geom. Mean) (converted)): 6.99 h
half-life (250 mg, multiple oral doses (q12 h) 250 mg, day 14, read-out: t1/2 (Mean) (converted)): 7.12 h
AUC(0-inf) (250 mg, single oral dose 250 mg, day 1, read-out: AUC0-∞ (Geom. Mean)): 84.7 ng·h/mL
AUC(0-inf) (250 mg, single oral dose 250 mg, day 1, read-out: AUC0-∞ (Mean)): 95.5 ng·h/mL
Cmax (250 mg, single oral dose 250 mg, day 1, read-out: Cmax (Geom. Mean)): 5.91 ng/mL
Cmax (250 mg, single oral dose 250 mg, day 1, read-out: Cmax (Mean)): 6.27 ng/mL
Tmax (250 mg, single oral dose 250 mg, day 1, read-out: Tmax (Geom. Mean)): 5.9 h
Tmax (250 mg, single oral dose 250 mg, day 1, read-out: Tmax (Mean)): 6 h
half-life (250 mg, single oral dose 250 mg, day 1, read-out: t1/2 (Geom. Mean) (converted)): 9.91 h
half-life (250 mg, single oral dose 250 mg, day 1, read-out: t1/2 (Mean) (converted)): 10.4 h

Source: patent US20060110451A1, “Formulations of [1,4]diazepino[6,7,1-IJ]quinoline derivatives” (priority 2004, published 2006)
